Test results from US7807422B2, “Production of flavonoids by recombinant microorganisms” (The Research Foundation of State University of New York, priority 2004, dated 2010).
Values belong to the compound of their own block, whether it stands above or below them.

Key:
A. andraeanum DFR = experiment: Biotransformation assay of flavanones with recombinant E. coli harboring Anthurium DFR (flavanone reductase activity); format: cell-based, Anthurium andraeanum; settings: substrate 0.4 mg/mL, 30° C., 24 hours, HPLC
Experimental: Seed cultures of recombinant E. coli harboring Anthurium DFR were grown in LB with 100 μg/mL ampicillin. After 24 hours, the preinoculum was used to seed a 50-mL main culture which was incubated at 37° C. until A600 reached 0.5. IPTG and flavanone substrates were added at a final concentration of 2 mM and 0.4 mg/mL respectively, and incubation proceeded at 30° C. for 24 hours before harvesting. Flavonoid products in the culture supernatant were extracted twice with an equal volume of ethyl acetate. The organic solvent was collected and evaporated using a rotary evaporator, and the residue was dissolved in water.
The products were analyzed by HPLC using an Agilent HPLC 1100 series instrument with a diode array detector. HPLC was carried out using a reverse phase ZORBAX SB-C18 column (diameter 4.6 mm×150 mm) using an acetonitrile (solvent A) and water (solvent B) gradient at a flow rate of 1 ml/min. The HPLC program conditions used were as follows: 10% to 40% A (0-10 min), 40% to 60% A (10-15 min), 60% A (15-20 min). Absorbance at 280 nm was monitored in all cases. […] The UV maximum for the various flavan-4-ols synthesized were: 276 nm for 2,4-cis-flavan-4-ol; 275 nm for 2,4-trans-flavan-4-ol; 281 nm for 2,4-cis-7-hydroxyflavan-4-ol; and 279 nm for 2,4-trans-7-hydroxyflavan-4-ol.
Besides NAR and ERI, four other commercially available flavanones were tested as substrates using the recombinant A. andraeanum DFR enzyme. The biotransformation assay was chosen for that purpose, since these flavanones cannot be synthesized as radio-isotopomers.

[1] = test system: Recombinant DFR A. andraeanum; experiment: In vitro DFR/FNR enzymatic reaction, TLC analysis; format: biochemical, Anthurium andraeanum; settings: compound as substrate; pH 6.5, 30° C.
Experimental: (§1) Vector pTrcHis2-TOPO, either empty (control) or harboring the various cDNA sequences, was transformed into E. coli strain TOP10F′ (Invitrogen). Individual colonies were grown overnight in 3-mL Luria-Broth (LB) cultures with 100 μg/mL Ampicillin. The seed culture was used the following day to start a 50-mL main culture with an initial absorbance at 600 nm (A600) of 0.05. The main culture was left to grow at 37° C. until A600 reached 0.5-0.8. At that point, the inducer IPTG (isopropyl β-thiogalactoside) at a final concentration of 2 mM was added and the culture was left to grow for 4 hours at 30° C. Cells were harvested by centrifugation, resuspended in 5 mL of buffer (0.1 M K2HPO4/KH2PO4, pH 6.5), and lysed by either sonication or glass beads.
(§2) In vitro DFR and FNR enzymatic reactions were performed using 186 Bq of radiolabeled substrate and incubation was performed at 30° C. for 30 min−1 hour for DFR tests, and 30 min−2.5 hours for FNR tests. Ethyl acetate extraction was performed (twice) at the end of the incubation period, with 100 μL ethyl acetate. The organic phase was analyzed on a precoated TLC cellulose plate (Merck, Germany). The products, leucoanthocyanins and flavan-4-ols were separated from the respective substrates, dihydroflavonols and flavanones by chromatography in chloroform:acetic acid:water (10:9:1) system. The detection and quantification of radioactivity was performed using Fuji BAS1000 Bio-Imaging Analyzer. Protein content was determined using Lowry procedure with crystalline BSA as a standard. In vitro reaction products were identified by a previously published Rf values from in vitro reactions using heterologously expressed DFR proteins from Malus domestica (Punyasiri, et al., 2004, Arch. Biochem. Biophys., 431:22-30). Using TLC chromatography with chloroform:acetic acid:water (10:9:1), the Rf(×100) values for various flavonoids are DHK: 68; DHQ: 35; DHM: 11; NAR: 93; ERI: 61; LPg: 18; LCy: 8; LDp: 14; Apf: 45; Ltf: 18.
(§3) The in vitro reactions were performed using the optimal conditions (pH 6.5, 30° C.). […] No products were formed when using crude extract from E. coli harboring empty vector. DHQ and DHM were accepted as substrates by all seven recombinant enzymes, however, only the recombinant DFR enzymes derived from A. andraeanum, A. thaliana, I. nil, R. hybrida, and F. ananassa were able to catalyze the formation of LPg (Table 18). […] In addition, no LPg could be detected in assays using DFR from I. purpurea and L. hybrid even when the reaction period was extended and the amount of protein was increased up to 100 μg. In all cases, substrate specificity appeared to be independent of temperature or pH changes.

[2] = target: T1, Recombinant DFR A. thaliana (Arabidopsis thaliana, UniProt P51102); experiment: In vitro DFR/FNR enzymatic reaction, TLC analysis; format: biochemical; settings: compound as substrate; pH 6.5, 30° C.
T1 construct: We amplified full-length cDNA of various plant DFR open reading frames by PCR and RT-PCR; made in house; host or cells: E. coli TOP10F′ (crude lysate)
T1 sequence (P51102 1-382): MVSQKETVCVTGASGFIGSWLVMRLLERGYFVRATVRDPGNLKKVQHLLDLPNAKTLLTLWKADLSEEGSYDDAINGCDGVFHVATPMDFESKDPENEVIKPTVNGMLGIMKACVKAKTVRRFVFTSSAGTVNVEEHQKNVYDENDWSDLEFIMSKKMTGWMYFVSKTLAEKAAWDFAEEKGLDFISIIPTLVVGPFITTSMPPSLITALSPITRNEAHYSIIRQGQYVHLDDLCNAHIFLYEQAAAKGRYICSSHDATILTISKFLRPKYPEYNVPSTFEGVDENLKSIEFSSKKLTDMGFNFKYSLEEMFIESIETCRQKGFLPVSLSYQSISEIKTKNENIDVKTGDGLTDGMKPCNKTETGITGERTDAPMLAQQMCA
Experimental: as §1, §2, §3

Recombinant DFR I. nil = experiment: In vitro DFR/FNR enzymatic reaction, TLC analysis; format: biochemical, Ipomoea nil; settings: compound as substrate; pH 6.5, 30° C.
Experimental: as §1, §2, §3

[3] = test system: Recombinant DFR I. purpurea; experiment: In vitro DFR/FNR enzymatic reaction, TLC analysis; format: biochemical, Ipomoea purpurea; settings: compound as substrate; pH 6.5, 30° C.
Experimental: as §1, §2, §3

[4] = test system: Recombinant DFR L. hybrid; experiment: In vitro DFR/FNR enzymatic reaction, TLC analysis; format: biochemical, Lilium hybrid; settings: compound as substrate; pH 6.5, 30° C.
Experimental: as §1, §2, §3

[5] = test system: Recombinant DFR R. hybrida; experiment: In vitro DFR/FNR enzymatic reaction, TLC analysis; format: biochemical, Rosa hybrida; settings: compound as substrate; pH 6.5, 30° C.
Experimental: as §1, §2, §3

[6] = test system: Recombinant DFR F. ananassa; experiment: In vitro DFR/FNR enzymatic reaction, TLC analysis; format: biochemical, Fragaria ananassa; settings: compound as substrate; pH 6.5, 30° C.
Experimental: as §1, §2, §3

[7] = test system: flavanone biosynthesis in recombinant yeast strain INV-4G; experiment: Naringenin production from coumaric acid by INV-4G in the presence of apigenin (feedback inhibition); format: cell-based, S. cerevisiae
Description: Heterologous expression and fermentation. In order to assemble the two different flavone biosynthetic pathways, recombinant INVSc1 carrying plasmid Ycc4c181G was transformed with YC-FSI, YC-FSII or YC-FSII+CPR1 separately, yielding recombinant strains INV-4G+FSI, INV-4G+FSII, and INV-4G+FSII+CPR1. Yeast colonies harboring both plasmids were selected upon growth on SC agar plates lacking leucine and tryptophan (SC-Leu-Trp-). For flavone fermentation purposes, an individual recombinant yeast colony was grown overnight in 10-mL liquid SC-Leu-Trp-containing glucose at 30° C. with shaking. The following day, a portion of this culture was used to seed the main culture of SC-Leu-Trp-containing galactose and raffinose or MA-Leu-Trp-containing galactose and acetate to an Ab600 of 0.4. 0.5 mM of phenylpropanoid acid (cinnamic acid, p-coumaric acid, caffeic acid, ferulic acid) was then added to the main culture, and incubation was carried out at 30° C. with horizontal shaking for a maximum of 92 hours.
Considering that INV-4G+FSI produced more apigenin than INV-4G+FSII+CPR1, we tested the possibility that flavanone biosynthesis is feedback—inhibited by apigenin. For this purpose, recombinant yeast strain carrying only the four flavanone biosynthetic genes (INV-4G) was created by simultaneously inserting YP-4G and empty YCplac22 plasmid. INV-4G was then tested for the ability to generate naringenin from coumaric acid, in the presence of apigenin. […] In the presence of 1 mg/L apigenin, the production of naringenin at stationary phase was reduced by 14%.

E. coli BL21 Star = experiment: Effect of phenylpropanoid acids on E. coli growth (growth curves); format: cell-based
Experimental: Growth Curves. In order to investigate the effect of Phenylpropanoid acids on E. coli growth, E. coli BL21 Star was inoculated in 3 ml M9 liquid minimum medium and was left to grow at 37° C. overnight (preinoculum). The following day, 1 ml from the preinoculum was transferred to either 50 ml M9 minimal or Luria-Bertani (LB) rich liquid medium and p-coumaric acid, caffeic acid or cinnamic acid were added in the culture at different final concentrations (0 mM, 0.2 mM, 0.5 mM, 1 mM and 2 mM). Cell growth was monitored by measuring the absorbance at 600 nm (A600).
Phenylpropanoid acids reduce E. coli growth. We tested the effect of both p-coumaric acid and cinnamic acid on E. coli growth by incubating BL21 Star in M9 minimum medium and LB rich medium in the presence of different concentration of these compounds (0 mM, 0.05 mM, 0.1 mM, 0.15 mM, 0.2 mM, 1 mM, and 2 mM). […] For example, in the case of p-coumaric acid in […], the growth rate dropped from 0.28 h^−1 (control, 0 mM) to 0.18 h^−1 (2 mM). Similarly, for cinnamic acid the growth rate dropped from 0.27 h^−1 (control, 0 mM) to 0.17 h^−1 (2 mM) in M9 minimal medium.

[8] = test system: S. cerevisiae strain INVSC1 carrying plasmid Ycc4c181; experiment: Growth of recombinant yeast fed with phenylpropanoid acids; format: cell-based; settings: preliminary data
Experimental: Yeast Shake Flask Experiment. A single colony of strain INVSC1 carrying plasmid Ycc4c181 was inoculated into 15 ml of SC-Leu minimal medium containing 2% glucose and was left to grow overnight at 30° C. with shaking (preinoculum). The following day, 50 ml induction medium (SC-Leu medium containing 2% galactose) was seeded with medium-free preinoculum to a final absorbance at 600 nm (A600) of 0.4. Cells were then left to grow at 30° C. with vigorous shaking for 4 hours. At that time, 50 μl of a 0.25 M stock solution of substrate (cinnamic acid, p-coumaric acid, caffeic acid or ferulic acid) were added to the culture to a final concentration of 0.25 mM. The culture was left to grow at 30° C. for a total of 65 hours with horizontal shaking. During that time, the culture was supplemented with another 50 μl of substrate stock every 12 hours for a total of 4 times.
Cinnamic acid was provided in a total of 5 increments to the culture. […] In all cases, after 65 hours of fermentation, only trace amounts of cinnamic acid were detected in the culture.
Flavanone compounds were identified by comparison of the retention time and UV profile with those of authentic standards and literature data.

[9] = test system: E. coli JM109 carrying plasmid pK184; experiment: Effect of naringenin on E. coli growth; format: cell-based
Experimental: E. coli shake-flask experiments. The identification of compounds produced from recombinant E. coli strain JM109 carrying plasmid pDGFA184 was done in a similar way to what has already been described in the literature Hwang et al., 2003, Appl. Environ Microbiol., 69:2699-2706). More specifically, 3 ml of Luria-Broth rich medium containing 50 ug/ml kanamycin was inoculated with the recombinant strain and was incubated at 37° C. with vigorous shaking. The next day, 200 ml of LB containing 50 μg/ml kanamycin was inoculated with 1 ml of overnight culture and the culture was incubated at 37° C. with vigorous shaking at 300 rpm to an OD600 of approximately 0.6. Next, the inducer IPTG was added to the culture to a final concentration of 1 mM. In order to avoid the formation of inclusion bodies, after the addition of the inducer the culture was incubated at room temperature with vigorous shaking overnight. Next day the cells were harvested by centrifugation and washed twice with M9 minimal medium. The pellets were then resuspended in 200 ml M9 minimal medium containing 50 μg/ml kanamycin, 1 mM IPTG and various concentrations of naringenin. In order to measure growth curves, the cultures were left to grow at room temperature with vigorous shaking until late stationary phase was reached. For flavonoid extraction experiments, the cultures were left to grow at room temperature for 65 h, again with horizontal vigorous shaking.
We tested the effect of naringenin on E. coli growth by incubating cultures of JM109 carrying plasmid pK184 in M9 minimal medium (50 μg/ml kanamycin) in the presence of different concentrations of naringenin (0.1 mM, 0.3 mM, 0.5 mM and 1 mM).

Compound: COc1cc(OC)c2c(c1)OC(c1ccccc1)CC2=O (stereo not drawn) [5,7-dimethoxyflavanone]
- reduction to the corresponding flavan-4-ol (A. andraeanum DFR): not

- Specific activity [2]: 0.002 pkatal/mg
Compound: O=C1c2c(O)cc(O)cc2O[C@H](c2ccc(O)cc2)[C@H]1O [DHK, dihydrokaempferol]
- Specific activity [1]: 21 pkatal/mg
- Specific activity (Recombinant DFR I. nil): 0.3 pkatal/mg
- Specific activity [3]: 0 pkatal/mg
- Specific activity [4]: 0 pkatal/mg
- Specific activity [5]: 0.4 pkatal/mg
- Specific activity [6]: 14 pkatal/mg

- Specific activity [2]: 1.0 pkatal/mg
Compound: O=C1c2c(O)cc(O)cc2O[C@H](c2cc(O)c(O)c(O)c2)[C@H]1O [DHM, dihydromyricetin]
- Specific activity [1]: 1.4 pkatal/mg
- Specific activity (Recombinant DFR I. nil): 1.5 pkatal/mg
- Specific activity [3]: 1.5 pkatal/mg
- Specific activity [4]: 1.2 pkatal/mg
- Specific activity [5]: 1.3 pkatal/mg
- Specific activity [6]: 1.4 pkatal/mg

- Specific activity [2]: 1.3 pkatal/mg
Compound: O=C1c2c(O)cc(O)cc2O[C@H](c2ccc(O)c(O)c2)[C@H]1O [DHQ, dihydroquercetin]
- Specific activity [1]: 1.4 pkatal/mg
- Specific activity (Recombinant DFR I. nil): 1.3 pkatal/mg
- Specific activity [3]: 1.2 pkatal/mg
- Specific activity [4]: 1.3 pkatal/mg
- Specific activity [5]: 1.0 pkatal/mg
- Specific activity [6]: 1.2 pkatal/mg

- Specific activity [2]: 0.6 pkatal/mg
Compound: O=C1C[C@@H](c2ccc(O)c(O)c2)Oc2cc(O)cc(O)c21 [ERI, eriodictyol]
- Specific activity [1]: 0.8 pkatal/mg
- Specific activity (Recombinant DFR I. nil): 0.6 pkatal/mg
- Specific activity [3]: 0.6 pkatal/mg
- Specific activity [4]: 0.6 pkatal/mg
- Specific activity [5]: 0.7 pkatal/mg
- Specific activity [6]: 0.6 pkatal/mg

Compound: O=c1cc(-c2ccc(O)cc2)oc2cc(O)cc(O)c12 [apigenin]
- production of naringenin at stationary phase reduced by ([7]; 1 mg/L apigenin): 14%
- naringenin production decline ([7]; 3 mg/L apigenin): approximately 60%
- naringenin production decline ([7]; 10 mg/L apigenin): ~85%

Compound: O=C(O)C=Cc1ccccc1 [cinnamic acid]
- growth rate (E. coli BL21 Star; 2 mM cinnamic acid, M9 minimal medium): 0.17 h⁻¹
- concentration in the medium resulting in significant cell growth arrest [8]: above 0.5 mM

Compound: O=C1CC(c2ccccc2)Oc2ccccc21 (stereo not drawn) [flavanone]
- reduction to the corresponding flavan-4-ol (A. andraeanum DFR): able to reduce

Compound: COc1ccc([C@@H]2CC(=O)c3c(O)cc(O)cc3O2)cc1O [hesperetin]
- reduction to the corresponding flavan-4-ol (A. andraeanum DFR): not

Compound: O=C1C[C@@H](c2ccc(O)cc2)Oc2cc(O)cc(O)c21 [naringenin]
- final dry cell weight concentration ([9]; 1 mM naringenin in minimal medium, after 13 h cell growth): 0.492 mg/mL
- reduction in the final dry cell weight ([9]; 1 mM naringenin vs control, 13 h): 16%
- maximum specific growth rate ([9]; 1 mM naringenin, M9 minimal medium): 0.14 h⁻¹
- OD600 (final cell mass) ([9]; 1 mM naringenin, after 13 h of growth): 1.0
- Specific activity [1]: 0.7 pkatal/mg
- Specific activity [2]: 0 pkatal/mg
- Specific activity (Recombinant DFR I. nil): 0.3 pkatal/mg
- Specific activity [3]: 0 pkatal/mg
- Specific activity [4]: 0 pkatal/mg
- Specific activity [5]: 0.4 pkatal/mg
- Specific activity [6]: 0.5 pkatal/mg

Compound: O=C(O)/C=C/c1ccc(O)cc1 [p-coumaric acid]
- growth rate (E. coli BL21 Star; 2 mM p-coumaric acid, M9 rich medium): 0.18 h⁻¹
